In test [1] the target is T1, flag-tagged HIF1α (AA 786-826) / His6-tagged p300 (AA 323-423) complex (Homo sapiens, UniProt Q09472).
T1 construct: His6-tagged p300 (AA 323-423); made in house; host or cells: E. coli (pETDuet vector)
The test can be described thus: HIF1α p300 displacement assay (TR FRET, +CHAPS). The settings on record: read-out: IC50 (nM) (HIF1α_p300 Displacement + CHAPS). The class given is binding. In short, it runs like this:
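In this TR-FRET displacement format, peptides compete HIF1α C-terminal transactivation domain off p300-CH. They were preincubated 1 h at room temperature with 300 nM complex in HEPES pH 7.4/NaCl buffer with 7.5 mM CHAPS and 1 mM DTT. Anti-His-D2 (4 nM) and anti-Flag-K (0.5 μM) followed for 2 h, and a one-site fit of the fluorescence ratio gave IC50.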

The subject of test [2] is HRE-bla ME-180 cells. The test can be described thus: Cell proliferation assay (viability, MTT, 1% FBS). It is filed as cell-based, human. In short, it runs like this: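 Viable cell number was measured with the CellTiter 96 (MTT) kit after compounds were applied for a 16 h normoxic (21% O2) pretreatment, followed by further normoxic or hypoxic (1% O2) culture. Cells: 2×10^4 ME-180 per well, Opti-MEM + 1% FBS, 0.5% DMSO vehicle.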

Test [3] concerns HRE-bla ME-180 cells. The test can be described thus: Reporter gene assay (HRE-bla ME-180 HIF reporter, GeneBLAzer). The class given is cell-based, human. The following applies: for EC50: 24 hour normoxia. In short, it runs like this: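 A FRET β-lactamase readout of HIF transcription was used. After compound treatment in 0.3% DMSO/media under normoxic conditions, 20 μl of 6× LiveBLAzer-FRET B/G (CCF4-AM) substrate was added. Plates sat 3 hr at room temperature in the dark and were read at 409 Ex/460Em and 409Ex/530Em on a Synergy 2. Inhibition was compared against DMSO vehicle controls, with chetomin as positive control.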

Test [4] deals with T2, His6-tagged p300 (AA 323-423) (UniProt Q09472 323-423).
T2 construct: range 323-423; also called p300-CH; not shown: His6 tag
T2 sequence (Q09472 323-423 limits assumed): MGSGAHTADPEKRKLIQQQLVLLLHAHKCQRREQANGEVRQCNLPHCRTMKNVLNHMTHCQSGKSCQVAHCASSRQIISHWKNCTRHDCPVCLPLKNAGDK
The test can be described thus: TR-FRET HIF1a/p300 displacement; grade = IC50 >700 nM. As for the experimental part:
The ability of peptides to displace HIF1α c-terminal trans-activation domain from p300-CH was measured by a TR FRET assay. […] The complex was diluted to 300 nM final in complete assay media and competitor peptides were added. The complete assay media contained 150 mM NaCl (Sigma +S5150 or equivalent), 20 mM HEPES pH 7.4 (Boston Bioproducts, Ashland, Mass.; #BB-2076), 7.5 mM CHAPS (Thermo #28300 or equivalent), and 1 mM DTT. Protein and peptide were incubated at room temperature for 1 hour before the addition of anti-Flag-K and anti-6×HIS-D2 (CisBio, Bedford Mass.) HTRF reconstitution buffer (50 mM Phosphate pH 7, 0.8 Potassium Flouride, BSA 0.2%)¹ to a final concentration of 0.5 μM and 4 nM respectively. The reaction continued for an additional two hours at room temperature. The reaction was read on a TECAN F500 plate reader with settings recommended by CisBio. The ratio of donor to acceptor fluorescence was calculated. The resulting data was analyzed with Graphpad Prism 5.0. IC50 values were calculated for both proteins using the One Site Fit-LogIC50 equation and presented in the column “IC₅₀ (nM) (HIF1α_p300 Displacement+CHAPS)” of Table 6. ¹ Cisbio USA, Bedford, Mass.; 61HISDLB (lot 007A), 61FG2KLB (024A), HTRF Buffer (62RB3RDF)

Bridge positions count the residues as written; N and C are the ends. Square brackets hold non-standard residues; d marks the D form. Peptide text beside a SMILES is read from it. R8 = C=CCCCCCC[C@@](C)(N)C(=O)O; S5 = C=CCCC[C@](C)(N)C(=O)O; Nle = CCCC[C@H](N)C(=O)O; Abu = CC[C@H](N)C(=O)O

8 molecules from patent US20190225650A1, “PEPTIDOMIMETIC MACROCYCLES AND USE THEREOF IN REGULATING HIF1ALPHA” (AILERON THERAPEUTICS, INC., priority 2013, published 2019) can be followed below.

T1 sequence (Q09472 323-423, one chain of several): as the sequence (Q09472 323-423 limits assumed) above

For the molecule `CC[C@@H]1NC(=O)[C@H](CC(=O)O)NC(=O)[C@H](Cc2ccc(O)cc2)NC(=O)[C@@](C)(NC(=O)[C@@H](NC(=O)[C@H](CC(C)C)NC(=O)[C@H](CCC(N)=O)NC(=O)[C@@H]2CCCN2C(=O)[C@H](CC(C)C)NC(=O)[C@H](CCC(=O)O)NC(=O)[C@H](CCCCN)NC(=O)[C@@H](NC(=O)[C@H](CCCNC(=N)N)NC(=O)[C@H](CC(=O)O)NC(=O)[C@H](CC(C)C)NC(=O)CNC(=O)[C@H](CCSC)NC(=O)[C@H](CCC(=O)O)NC(=O)[C@]2(C)CCCC=CCCCCCC[C@@](C)(NC(=O)[C@H](CCC(=O)O)NC(=O)[C@H](CC(=O)O)NC(=O)[C@@H](NC(=O)[C@H](Cc3ccccc3)NC(C)=O)[C@@H](C)CC)C(=O)N[C@@H](C(C)C)C(=O)N[C@@H](CC(C)C)C(=O)N[C@@H](CCSC)C(=O)N[C@@H](CO)C(=O)N[C@@H](CC(C)C)C(=O)N[C@@H](C(C)C)C(=O)N2)[C@@H](C)CC)[C@@H](C)O)CCCC=CCCC[C@@](C)(C(=O)N[C@H](C(=O)N[C@@H](CC(N)=O)C(=O)N[C@@H](C)C(N)=O)C(C)C)NC1=O` [SP-323] (Ac-FIDE[R8]VLMSLV[S5]EMGLDRIKELPQLT[S5]YD[Abu][S5]VNA-NH2; staple 5-12, 27-31), the IC50 in test [1] was 200 to 400 nM. Besides, the “Viability 1% FBS AVG (MTT V3-24 hr Normoxia) (μM)” value (“Viability 1% FBS AVG” below) in test [2] is on record as “++++ (≥30: ++++)”. In test [3], the “18 h Avg % max inhibition at top conc (HIF Rptr-24 hrs normoxia) (μM)” value (“18 h Avg % max inhibition at top conc” below) was “+ (<10: +)” and the EC50 was more than 30 µM.
For `CCCC[C@H](NC(=O)[C@H](CCC(=O)O)NC(=O)[C@]1(C)CCCC=CCCCCCC[C@@](C)(NC(=O)[C@H](CCC(=O)O)NC(=O)[C@H](CC(=O)O)NC(=O)[C@@H](NC(=O)[C@H](CC(N)=O)NC(=O)[C@@H](NC(=O)[C@H](CCC(N)=O)NC(=O)[C@]2(C)CCCC=CCCC[C@](C)(NC(=O)[C@H](CC(C)C)NC(=O)[C@H](CCC(=O)O)NC(=O)[C@H](CCC(=O)O)NC(C)=O)C(=O)N[C@@H](CCCNC(=N)N)C(=O)N[C@@H](C)C(=O)N[C@@H](CC(C)C)C(=O)N2)C(C)C)[C@@H](C)CC)C(=O)N[C@@H](C(C)C)C(=O)N[C@@H](CC(C)C)C(=O)N[C@@H](CCCC)C(=O)N[C@@H](CO)C(=O)N[C@@H](CC(C)C)C(=O)N[C@@H](C(C)C)C(=O)N1)C(N)=O` [SP-366] (Ac-EEL[S5]RAL[S5]QVNIDE[R8]VL[Nle]SLV[S5]E[Nle]-NH2; staple 4-8, 15-22), the IC50 in test [1] was more than 700 nM. In addition, the “Viability 1% FBS AVG” value in test [2] is recorded as “++++ (≥30: ++++)”. Besides, in test [3], the “18 h Avg % max inhibition at top conc” value is reported as “++++ (≥50: ++++)” and the EC50 was not above 5 µM.
For `CCCC[C@H](NC(=O)[C@H](CCC(=O)O)NC(=O)[C@@H](NC(=O)[C@@H](NC(=O)[C@H](CC(C)C)NC(=O)[C@]1(C)CCCC=CCCC[C@](C)(NC(=O)[C@H](CCC(=O)O)NC(=O)[C@H](CC(=O)O)NC(=O)[C@@H](NC(=O)[C@H](Cc2ccccc2)NC(C)=O)[C@@H](C)CC)C(=O)N[C@@H](C(C)C)C(=O)N[C@@H](CC(C)C)C(=O)N[C@@H](CCCC)C(=O)N1)C(C)C)[C@@H](C)CC)C(=O)N[C@@H](C)C(=O)N[C@@H](CC(C)C)C(=O)N[C@@H](CC(=O)O)C(=O)N[C@@H](CCCNC(=N)N)C(=O)N[C@H](C(N)=O)[C@@H](C)CC` [SP-109] (Ac-FIDE[S5]VL[Nle][S5]LVIE[Nle]ALDRI-NH2; staple 5-9), in test [1], the concentration for half-maximal inhibition (IC50) was in the range of 200 to 400 nM. Further, the “Viability 1% FBS AVG” value in test [2] was “++ (≤5 but <15: ++)”. Moreover, in test [3], the “18 h Avg % max inhibition at top conc” value is “+ (<10: +)” and the EC50 was more than 30 µM.
Turning to `CCCC[C@H](NC(=O)[C@H](CCC(=O)O)NC(=O)[C@@H](NC(=O)[C@@H](NC(=O)[C@H](CC(C)C)NC(=O)[C@]1(C)CCCC=CCCC[C@](C)(NC(=O)[C@H](CCC(=O)O)NC(=O)[C@H](CC(=O)O)NC(=O)[C@@H](NC(=O)[C@H](CC(N)=O)NC(=O)[C@@H](NC(=O)[C@]2(C)CCCC=CCCCCCC[C@@](C)(NC(=O)[C@H](CCC(=O)O)NC(=O)CNC(=O)[C@H](CCC(N)=O)NC(=O)[C@H](CC(C)C)NC(=O)[C@H](CC(C)C)NC(C)=O)C(=O)N[C@@H](CC(C)C)C(=O)N[C@@H](CC(C)C)C(=O)N[C@@H](CCCNC(=N)N)C(=O)N[C@@H](C)C(=O)N[C@@H](CC(C)C)C(=O)N[C@@H](CC(=O)O)C(=O)N2)C(C)C)[C@@H](C)CC)C(=O)N[C@@H](C(C)C)C(=O)N[C@@H](CC(C)C)C(=O)N[C@@H](CCCC)C(=O)N1)C(C)C)[C@@H](C)CC)C(=O)NCC(N)=O` [SP-328] (Ac-LLQGE[R8]LLRALD[S5]VNIDE[S5]VL[Nle][S5]LVIE[Nle]G-NH2; staple 6-13, 19-23), the IC50 in test [1] is not above 200 nM. In addition, the “Viability 1% FBS AVG” value in test [2] is reported as “++++ (≥30: ++++)”. Also, in test [3], the “18 h Avg % max inhibition at top conc” value was “+ (<10: +)” and the EC50 was more than 30 µM.

B1: SP-9 (peptide)
peptide: Ac-AIDEEVL[Nle][S5]LVI[S5][Nle]ALDRI-NH2
modifications: staple 9-13
SMILES: CCCC[C@H](NC(=O)[C@H](CC(C)C)NC(=O)[C@@H](NC(=O)[C@H](CCC(=O)O)NC(=O)[C@H](CCC(=O)O)NC(=O)[C@H](CC(=O)O)NC(=O)[C@@H](NC(=O)[C@H](C)NC(C)=O)[C@@H](C)CC)C(C)C)C(=O)N[C@@]1(C)CCCC=CCCC[C@@](C)(C(=O)N[C@@H](CCCC)C(=O)N[C@@H](C)C(=O)N[C@@H](CC(C)C)C(=O)N[C@@H](CC(=O)O)C(=O)N[C@@H](CCCNC(=N)N)C(=O)N[C@H](C(N)=O)[C@@H](C)CC)NC(=O)[C@H]([C@@H](C)CC)NC(=O)[C@H](C(C)C)NC(=O)[C@H](CC(C)C)NC1=O
Turning to B1, the IC50 in test [4] was more than 700 nM.

B2: SP-12 (peptide)
peptide: Ac-FIDAEVL[Nle][S5]LVI[S5][Nle]ALDRI-NH2
modifications: staple 9-13
SMILES: CCCC[C@H](NC(=O)[C@H](CC(C)C)NC(=O)[C@@H](NC(=O)[C@H](CCC(=O)O)NC(=O)[C@H](C)NC(=O)[C@H](CC(=O)O)NC(=O)[C@@H](NC(=O)[C@H](Cc1ccccc1)NC(C)=O)[C@@H](C)CC)C(C)C)C(=O)N[C@@]1(C)CCCC=CCCC[C@@](C)(C(=O)N[C@@H](CCCC)C(=O)N[C@@H](C)C(=O)N[C@@H](CC(C)C)C(=O)N[C@@H](CC(=O)O)C(=O)N[C@@H](CCCNC(=N)N)C(=O)N[C@H](C(N)=O)[C@@H](C)CC)NC(=O)[C@H]([C@@H](C)CC)NC(=O)[C@H](C(C)C)NC(=O)[C@H](CC(C)C)NC1=O
Molecule B2 returned a half-maximal inhibitory concentration (IC50) in test [4] of more than 700 nM.

B3: SP-11 (peptide)
peptide: Ac-FIAEEVL[Nle][S5]LVI[S5][Nle]ALDRI-NH2
modifications: staple 9-13
SMILES: CCCC[C@H](NC(=O)[C@H](CC(C)C)NC(=O)[C@@H](NC(=O)[C@H](CCC(=O)O)NC(=O)[C@H](CCC(=O)O)NC(=O)[C@H](C)NC(=O)[C@@H](NC(=O)[C@H](Cc1ccccc1)NC(C)=O)[C@@H](C)CC)C(C)C)C(=O)N[C@@]1(C)CCCC=CCCC[C@@](C)(C(=O)N[C@@H](CCCC)C(=O)N[C@@H](C)C(=O)N[C@@H](CC(C)C)C(=O)N[C@@H](CC(=O)O)C(=O)N[C@@H](CCCNC(=N)N)C(=O)N[C@H](C(N)=O)[C@@H](C)CC)NC(=O)[C@H]([C@@H](C)CC)NC(=O)[C@H](C(C)C)NC(=O)[C@H](CC(C)C)NC1=O
B3 registered a 50% inhibitory concentration (IC50) in test [4] of more than 700 nM.

B4: SP-10 (peptide)
peptide: Ac-FADEEVL[Nle][S5]LVI[S5][Nle]ALDRI-NH2
modifications: staple 9-13
SMILES: CCCC[C@H](NC(=O)[C@H](CC(C)C)NC(=O)[C@@H](NC(=O)[C@H](CCC(=O)O)NC(=O)[C@H](CCC(=O)O)NC(=O)[C@H](CC(=O)O)NC(=O)[C@H](C)NC(=O)[C@H](Cc1ccccc1)NC(C)=O)C(C)C)C(=O)N[C@@]1(C)CCCC=CCCC[C@@](C)(C(=O)N[C@@H](CCCC)C(=O)N[C@@H](C)C(=O)N[C@@H](CC(C)C)C(=O)N[C@@H](CC(=O)O)C(=O)N[C@@H](CCCNC(=N)N)C(=O)N[C@H](C(N)=O)[C@@H](C)CC)NC(=O)[C@H]([C@@H](C)CC)NC(=O)[C@H](C(C)C)NC(=O)[C@H](CC(C)C)NC1=O
Regarding B4, in test [4], the IC50 is more than 700 nM.
